Measured values published in patent publication US11293045B2, “Method for electrochemical detection of mycobacteria” (UNIVERSITÉ DE BOURGOGNE, priority 2017, dated 2022).

Assay: Linear voltammetry of substrate and product solutions on screen-printed carbon sensors
Format: physicochemical
Details: linear voltammetry v=50 mV·s^−1; 5×10^−4 M in PBS (pH 7.5)—0.2% DMSO; vs. Ag/AgCl
Protocol: FIG. 2 represents the linear voltammograms (v=50 mV·s^−1) of a solution of substrate (p-AP-OG; S) and of product (p-AP-G; dashed curve; P) at 5×10^−4 M in PBS (pH 7.5)—0.2% DMSO.
The electrochemical measurements were carried out by linear voltammetry (v=50 mV·s^−1) with a 910 PSTAT mini potentiostat (Metrohm, France) powered through the USB connection of the computer and controlled by the PSTAT software (version 1.0). To do this, drops of solution of 30-50 μl were deposited on the surface of single-use screen-printed carbon sensors supplied by Dropsens (DRP-110) and connected to the potentiostat via the connector (DRP-DSC). The amperometric detection of the product generated during the reaction catalyzed by Ag85 was always carried out after a step of filtration of the reaction mixture with a filtration device (Microcon 10 kDa, Millipore). All the potentials are measured relative to the Ag/AgCl reference electrode.

| Compound | oxidation peak potential |
| --- | --- |
| CCCCCCCC(=O)OC[C@H]1O[C@@H](Oc2ccc(N)cc2)[C@H](O)[C@@H](O)[C@@H]1O [p-AP-OG, p-aminophenyl-6-O-octanoyl-β-D-glucopyranoside] | ~+0.2 V |
| Nc1ccc(O[C@@H]2O[C@H](CO)[C@@H](O)[C@H](O)[C@H]2O)cc1 [p-AP-G, p-aminophenyl-β-D-glucopyranoside] | ~+0.4 V |
